In patent US20250188123A1, “PROTEASE INHIBITORS” (Regents of the University of Minnesota, priority 2022, published 2025):
Like-named read-outs stand apart in the source and are kept apart here.

Legend:
Assay type in all cases: biochemical
human caspase-3 = biological target: T1, human caspase-3 (Homo sapiens, UniProt P42574); assay: Fluorescent enzyme assay, Casp3 (AFC substrate AcDEVD-AFC)
T1 construct: made in house; host or cells: E. coli Rosetta 2 pLysS DE3
T1 sequence (P42574 29-277): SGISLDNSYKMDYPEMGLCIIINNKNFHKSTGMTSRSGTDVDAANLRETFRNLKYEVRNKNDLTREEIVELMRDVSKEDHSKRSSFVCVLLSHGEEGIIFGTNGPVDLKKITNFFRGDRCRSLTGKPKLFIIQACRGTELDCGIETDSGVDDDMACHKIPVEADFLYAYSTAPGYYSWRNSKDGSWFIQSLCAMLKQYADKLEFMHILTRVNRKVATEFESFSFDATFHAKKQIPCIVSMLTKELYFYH
Description: (§1) Human recombinant Casp1, 6, 7, and 9 were purchased from BioVision (Milpitas/CA, USA). AFC fluorogenic substrates and control peptides (AcYVAD-CHO, AcVDVAD-CHO, AcDEVD-CHO, AcVEID-CHO, and AcLEHD-CHO) were purchased from Bachem (Torrance/CA, USA). The pET23b vector encoding human caspase-3 was a gift of Dr. Michelle Arkin at University of California, San Francisco. Expression and purification of Casp3 was guided by previously described protocols (Denault J-B, Salvesen G S., Current Protocols in Protein Science, 2002, 30(1), 21.13. 1-21.13. 15). Briefly, the plasmid was transformed into E. coli Rosetta 2 pLyss DE3 cells that were cultured at 1 L scale in shake flasks. Five hours post induction with IPTG, cells were harvested through centrifugation (4000 g for 10 minutes at 4° C.), lysed by sonication, and centrifuged again for 30 minutes at 20000 g. Supernatant was resuspended in buffer (100 mM Tris pH 8.0, 500 mM NaCl). Purification was achieved by nickel-affinity chromatography followed by ion-exchange chromatography. Protein was diluted to 0.5 mg/mL and stored at −80° C. in 100 mM Tris, pH 8.0 supplemented with 10% glycerol. The typical yield for the expression, isolation, and purification was approximately 3 mg/L. The DNA encoding human caspase-2 (hCASP2, amino acids 170-452, free of the N-terminal caspase activation and recruitment domain) open reading frame (ORF) was amplified via polymerase chain reaction (PCR) from full-length hCASP2 cDNA (Origene, Rockville, MD; Cat #SC321316) using following primers: forward, 5′-[…]-3′; reverse, 5′-[…]-3′. The PCR fragment was then cloned into the pET23b vector (Millipore Sigma, Burlington, MA), and DNA sequence was verified by classic Sanger sequencing analyses. Site-directed mutageneses were carried out using a QuikChange II XL site-directed mutagenesis kit (Agilent Technologies, Santa Clara, CA; Cat #200522) according to the manufacturer's instruction. Expression of recombinant hCASP2 was induced using 150 μM isopropyl-β-D-thiogalactopyranoside (IPTG) (Promega, Madison, WI) in the BL21(DE3) E. coli strain (Millipore Sigma) at 16° C. for 14 hours while shaking at 250 rpm. Cells were then harvested via centrifugation at 6,000 g, 4° C. for 15 minutes, followed by lysis via sonication. Proteins were initially purified using HisPur Ni-NTA resin (Thermo Fisher Scientific, Waltham, MA) followed by metal chelating chromatography (5 mL HiTrap Chelating HP columns (GE Healthcare Life Sciences, Piscataway, NJ)). Further purification was carried out using anion exchange chromatography (5 mL HiTrap Q HP columns (GE Healthcare Life Sciences)) for hCASP2. Proteins were stored in 1× phosphate-buffered saline (pH 7.4) at 10 mg/mL (concentration determined using a BCA assay (Thermo Fisher Scientific)), −80° C. until further use.
(§2) KM values were determined experimentally to be the following: Casp1: 5.9 μM; Casp2: 37.1 μM; Casp3: 7.6 μM; Casp6: 14.5 μM; Casp7: 13.8 μM; Casp9: 149.1 μM. Enzymes were diluted in buffer: 100 mM MES (pH 6.5) for Casp2 and or 100 mM HEPES (pH 7.0) for all other caspases, plus 150 mM NaCl, 0.1% CHAPS, 1.5% sucrose, 10 mM DTT. Enzyme concentrations were 0.05 U/well for Casp1, 6, and 7; 0.5 U/well for Casp9, 20 nM/well for Casp2, and 2 nM/well for Casp3. Enzyme in buffer (19 μL) was added per well in a black 384-well Corning 4514 assay plate. Test compounds were serially diluted in dimethyl sulfoxide (DMSO) and plated in duplicate into a Corning 3656 transfer plate. Test compound was added to assay plates in 0.5 μL aliquots per well and mixed 10 times using a BiomekFX (Beckman Coulter). Compound and enzyme mixture was incubated at 37° C. for 5 minutes for aldehyde warheads and 45 minutes for cyano warheads. […]

human caspase-2 = biological target: T2, human caspase-2 (Homo sapiens, UniProt P42575); assay: Fluorescent enzyme assay, Casp2 (AFC substrate Z-VDVAD-AFC); settings: for Ki (Casp3) / Ki (Casp2): selectivity Casp2 over Casp3
T2 construct: inferred from pET23b, XhoI reverse primer without stop codon, Ni-NTA purification) (C); made in house; host or cells: E. coli BL21(DE3)
T2 sequence (P42575 170-452): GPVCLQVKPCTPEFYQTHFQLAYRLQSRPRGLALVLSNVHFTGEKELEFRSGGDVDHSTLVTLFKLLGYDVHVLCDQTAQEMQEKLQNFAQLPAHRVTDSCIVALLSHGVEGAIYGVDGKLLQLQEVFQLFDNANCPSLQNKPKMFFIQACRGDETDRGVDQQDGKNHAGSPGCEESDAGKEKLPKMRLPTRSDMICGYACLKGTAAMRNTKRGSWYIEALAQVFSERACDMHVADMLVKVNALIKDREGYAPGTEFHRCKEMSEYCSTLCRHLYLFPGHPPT
Description: as §1, §2

cathepsin B = cathepsin B (Homo sapiens, UniProt P07858); assay: Activity at cathepsin B proteolytic enzyme
Human recombinant Casp9 = biological target: T3, Human recombinant Casp9 (Homo sapiens, UniProt P55211); assay: In vitro caspase panel assay, Casp9; settings: Casp2 over Casp9, caspase panel
T3 construct: purchased BioVision (Milpitas/CA, USA)
T3 sequence (P55211 1-416): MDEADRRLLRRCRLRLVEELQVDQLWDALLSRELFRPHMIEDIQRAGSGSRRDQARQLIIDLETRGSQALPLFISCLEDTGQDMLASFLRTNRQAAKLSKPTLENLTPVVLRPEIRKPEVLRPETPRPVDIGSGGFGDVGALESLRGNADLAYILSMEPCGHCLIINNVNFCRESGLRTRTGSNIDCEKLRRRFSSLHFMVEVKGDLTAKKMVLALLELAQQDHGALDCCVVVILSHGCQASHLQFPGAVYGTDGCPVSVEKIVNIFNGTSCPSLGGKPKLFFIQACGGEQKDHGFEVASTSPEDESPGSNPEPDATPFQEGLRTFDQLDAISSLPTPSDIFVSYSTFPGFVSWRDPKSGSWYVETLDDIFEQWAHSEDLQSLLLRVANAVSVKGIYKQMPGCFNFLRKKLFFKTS
Description: Human recombinant Casp1, 6, 7, and 9 were purchased from BioVision (Milpitas/CA, USA). AFC fluorogenic substrates and control peptides (AcYVAD-CHO, AcVDVAD-CHO, AcDEVD-CHO, AcVEID-CHO, and AcLEHD-CHO) were purchased from Bachem (Torrance/CA, USA). The pET23b vector encoding human caspase-3 was a gift of Dr. Michelle Arkin at University of California, San Francisco. Expression and purification of Casp3 was guided by previously described protocols (Denault J-B, Salvesen G S., Current Protocols in Protein Science, 2002, 30(1), 21.13. 1-21.13. 15). Briefly, the plasmid was transformed into E. coli Rosetta 2 pLyss DE3 cells that were cultured at 1 L scale in shake flasks. […] The typical yield for the expression, isolation, and purification was approximately 3 mg/L. The DNA encoding human caspase-2 (hCASP2, amino acids 170-452, free of the N-terminal caspase activation and recruitment domain) open reading frame (ORF) was amplified via polymerase chain reaction (PCR) from full-length hCASP2 cDNA (Origene, Rockville, MD; Cat #SC321316) using following primers: forward, 5′-[…]-3′; reverse, 5′-[…]-3′. […] Proteins were stored in 1× phosphate-buffered saline (pH 7.4) at 10 mg/mL (concentration determined using a BCA assay (Thermo Fisher Scientific)), −80° C. until further use. […]

[1] = mean ± SEM of N independent experiments, each in duplicate or triplicate

| SMILES | Ki (human caspase-3; mean ± SEM of N independent experiments, each in duplicate or triplicate, read-out: pKi ± SEM Casp 3 (converted)) [nM] | Ki (human caspase-2; mean ± SEM of N independent experiments, each in duplicate or triplicate, read-out: pKi ± SEM Casp 2 (converted)) [nM] | Ki (Casp3) / Ki (Casp2) (human caspase-2) | Ki (human caspase-3) [nM] | activity at cathepsin B (cathepsin B) | Ki (human caspase-2) [nM] | selective versus Casp3 (human caspase-2; Casp2 over Casp3) [fold] | selective versus Casp9 (Human recombinant Casp9) [fold] | pKi ± SEM Casp 3 (human caspase-3; [1]) | pKi ± SEM Casp 2 (human caspase-2; [1]) |
| --- | --- | --- | --- | --- | --- | --- | --- | --- | --- | --- |
| CC(=O)N[C@H](C(=O)NC(CC(=O)O)C(=O)N[C@H](C(=O)N1CCc2cc(C)ccc2C1C(=O)N[C@H](C=O)CC(=O)O)C(C)C)C(C)C (stereo in doubt) [Compound 30a, (R)-3-((S)-2-acetamido-3-methylbutanamido)-4-(((S)-1-((S)-1-(((S)-1-carboxy-3-oxopropan-2-yl)carbamoyl)-6-methyl-3,4-dihydroisoquinolin-2(1H)-yl)-3-methyl-1-oxobutan-2-yl)amino)-4-oxobutanoic acid, reference compound] | > 100000 | 10500 | >9 | – | – | – | – | – | – | – |
| Cc1ccc2c(c1)CCN(C(=O)[C@@H](NC(=O)[C@H](CCCC(=O)O)NC(=O)C1Cc3ccccc3N1)C(C)C)[C@@H]2C(=O)N[C@H](C#N)CC(=O)O (stereo partly drawn) [Compound 1, (8)-6-(((S)-1-((8)-1-(((S)-2-carboxy-1-cyanoethyl)carbamoyl)-6-methyl-3,4-dihydroisoquinolin-2(1H)-yl)-3-methyl-1-oxobutan-2-yl)amino)-5-((S)-indoline-2-carboxamido)-6-oxohexanoic acid] | – | – | 123 | 933 | weak activity | 7.59 | 123 | > 2000 | – | – |
| CC(=O)N[C@H](C(=O)N[C@@H](CC(=O)O)C(=O)N[C@H](C(=O)N1CCc2cc(C)ccc2[C@H]1C(=O)N[C@H](C=O)CC(=O)O)C(C)C)C(C)C [Compound 30b, (S)-3-((S)-2-acetamido-3-methylbutanamido)-4-(((S)-1-((S)-1-(((S)-1-carboxy-3-oxopropan-2-yl)carbamoyl)-6-methyl-3,4-dihydroisoquinolin-2(1H)-yl)-3-methyl-1-oxobutan-2-yl)amino)-4-oxobutanoic acid, reference compound] | – | – | 70 | – | – | – | – | – | 6.04 ± 0.06 | 7.89 ± 0.02 |
